The subject of assay [1] is Group II/III metabotropic glutamate receptors (mGluRs). The experiment in a line: Cyclic AMP assay (ex vivo, forskolin-induced cAMP accumulation in rat cortical slices). The assay is classed as cell-based, Sprague Dawley rat. On the procedure:
The assay of cyclic AMP formation can be performed as described previously (Tovey et al., Clinica Chimica Acta, 56, 221-234, 1974). The assay can be modelled on the cyclic AMP assay kit available from Amersham, which in turn, is based on the assay created by Tovey et al. Briefly, samples are prepared from Sprague Dawley rat (225-250 g) cortical slices. Slices are incubated with the drug, and then challenged with forskolin to induce cyclic AMP release. Following termination of the reaction by boiling, the slices are homogenized and centrifuged. Samples of supernatant are then incubated for 2-3 hours with a known quantity of [^3H]cAMP and a binding protein. […] The resulting supernatant (containing free cyclic AMP) is then analyzed by liquid scintillation counting. The amount of unbound cyclic AMP can be calculated from a standard curve previously determined with various samples of free cyclic AMP. […]
The assay has been modeled on the cyclic AMP assay kit available from Amersham. […] Samples of supernatant were then incubated for 2-3 hours with a known quantity of [^3H]cAMP and a binding protein. […] The resulting supernatant (containing free cyclic AMP) was then analyzed by liquid scintillation counting. The amount of unbound cyclic AMP was calculated from a standard curve previously determined with various samples of free cyclic AMP. […]
(Changes in cAMP serve as a functional read-out for many G protein-coupled receptors.)

The test system of assay [2] is Group I metabotropic glutamate receptors (mGluRs). The experiment in a line: Phosphatidylinositol assay (ex vivo, inositol phosphate accumulation in neonatal rat tissue slices). Conditions: antagonist, versus ACPD, 45 minutes. It counts as cell-based, Sprague Dawley rat. On the procedure: Briefly, cross-chopped slices are prepared from neonatal Sprague Dawley rat tissue (age: p7-p14). The slices are pre-labelled with [^3H] myo-inositol. Following pre-labelling, the slices are incubated with the test drugs and standard (known Group I agonists i.e. ACPD) for a period of 45 minutes. The incubation is terminated by the addition of chloroform/methanol/HCl (100:200:2). The resulting mixture is separated into two phases by the addition of chloroform and distilled water. The aqueous fraction is applied to ion exchange columns, and inositol phosphates are eluted using 800 mM Ammonium Formate/100 mM Formic Acid. The eluent is then analyzed using liquid scintillation counting. The amount of inositol phosphate accumulation is expressed as a percentage of that induced by ACPD.
Group I metabotropic glutamate receptors (mGluRs) are positively coupled on inositol phosphate metabolism. Agonists at these receptors lead to an increase in intracellular free inositol phosphates, while antagonists inhibit the increase in intracellular free inositol phosphate induced by standard agonists (i.e. ACPD).
Cross-chopped slices were prepared from neonatal Sprague Dawley rat tissue (age: p7-p14). […] The eluent was then analyzed using liquid scintillation counting. The amount of inositol phosphate accumulation was expressed as a percentage of that induced by ACPD. […]

The structures appear in SMILES notation. Like-named read-outs stand apart in the source and are kept apart here.

For `N[C@@]1(C(=O)O)Cc2ccccc2[C@H]1CC(=O)O` (relative stereo) [Cis-2 amino-2-carboxyindaneacetic acid (compound 8)], the EC50 in assay [1] (antagonist, versus glutamate, read-out: Group II/III Antagonist EC50) was 0.0012 µM; in assay [2], 2.2 µM.
Consider `N[C@]1(C(=O)O)Cc2ccccc2[C@H]1CC(=O)O` (relative stereo) [Trans-2 amino-2-carboxyindaneacetic acid (compound 8)], for which the EC50 in assay [1] (agonist, read-out: Group II/III Agonist EC50) is 0.11 µM; in assay [2] it was 1600 µM.

Source of the values: patent publication US7034055B1, “2-aminoindane analogs” (Prescient Neuropharma Inc., priority 1999, dated 2006).
